Data published in PMC11247503 (Journal of Medicinal Chemistry, 2024).
Where a name gives a salt, the structure may show the parent alone.

molecular target: T1, mouse Spns2 (Mus musculus, UniProt Q91VM4); assay: HeLa cell S1P release assay (Spns2 inhibition); assay type: cell-based; details: 1 μM inhibitor; HeLa cells; S1P in media by LC-MS/MS
T1 construct: expressed in transfected cells; host or cells: HeLa cells (G418-resistant pools)
T1 sequence (Q91VM4 1-549): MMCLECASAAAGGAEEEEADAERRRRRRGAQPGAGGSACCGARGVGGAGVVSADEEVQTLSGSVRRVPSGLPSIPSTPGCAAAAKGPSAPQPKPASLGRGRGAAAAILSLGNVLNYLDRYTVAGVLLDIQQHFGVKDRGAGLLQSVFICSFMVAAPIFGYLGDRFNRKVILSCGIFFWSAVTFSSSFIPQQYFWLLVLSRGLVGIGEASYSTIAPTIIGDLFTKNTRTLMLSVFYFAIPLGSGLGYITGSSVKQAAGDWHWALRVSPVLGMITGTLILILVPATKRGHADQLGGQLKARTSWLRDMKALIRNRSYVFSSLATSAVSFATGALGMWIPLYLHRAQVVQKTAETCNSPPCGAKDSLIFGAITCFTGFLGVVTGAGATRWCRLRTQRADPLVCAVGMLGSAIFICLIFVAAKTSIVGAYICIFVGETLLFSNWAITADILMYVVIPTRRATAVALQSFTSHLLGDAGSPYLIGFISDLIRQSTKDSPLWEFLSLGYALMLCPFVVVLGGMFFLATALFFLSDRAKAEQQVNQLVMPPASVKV
Procedure: With a library of analogs of SLB1122168 containing phenylurea, phenylcarbamate, and benzamide as bioisostere of the benzoxazole, we investigated their potential in inhibiting S1P transport using a HeLa cell assay.[36]−[38],[43] Briefly, in this assay, Spns2 is overexpressed whereas the S1P-degrading enzymes (lyase or phosphatases) were blocked with inhibitors.[44],[45] Inhibition of S1P transport is determined by measuring the amount of S1P in the buffer using LC-MS.
This assay was conducted as reported by Kharel et al.[43] Briefly, compounds were assessed in a HeLa cell assay at a 1 μM test concentration, unless noted otherwise. HeLa cells were transfected with a pcDNA3.1 plasmid encoding mouse Spns2, and pools of cells resistant to G418 were selected. S1P catabolic pathways were suppressed by the addition of 4-deoxypyridoxine (1 mM), NaF (2 mM), and Na3VO4 (0.2 mM). After growing cells to near confluence on 12-well tissue culture dishes, growth media was removed, inhibitors were introduced in release media (serum free medium containing 0.2% fatty acid free BSA), and the cells were incubated for 16–18 h at 37 °C. The BSA with bound S1P was concentrated from the release media by TFA-driven precipitation after addition of the d7-S1P internal standard, the S1P extracted from the protein pellet, and quantified by LC-MS/MS. Lower levels of S1P release into the media indicated greater degrees of Spns2 inhibition. Inhibition is reported as the percent decrease in S1P release relative to the control where no inhibitor was introduced.

In the case of “2-Aminoethyl (4-Decylphenyl)carbamate Hydrochloride [8a]”, the “%Inhib. (Spns2 inhibition, percent decrease in S1P secretion relative to control)” value is reported as 44 ± 7%.

same assay, conditions: 1 μM inhibitor; HeLa cells; S1P in media by LC-MS/MS; 1 µM

Compared with `CCCCCCCCCCc1ccc(C(=O)N2CCN[C@@H](C)C2)cc1.Cl` [(S)-4i, (S)-(4-Decylphenyl)(3-methylpiperazin-1-yl)methanone Hydrochloride], `CCCCCCCCCCc1ccc(C(=O)N[C@H]2CCNC2)cc1.Cl` [(S)-4d, (S)-4-Decyl-N-(pyrrolidin-3-yl)benzamide Hydrochloride] is higher in “%Inhib. (Spns2 inhibition, percent decrease in S1P secretion relative to control)” value: 44 ± 1% for the first, 61 ± 5% for the second.

same assay, conditions: 1 μM inhibitor; HeLa cells; S1P in media by LC-MS/MS; listed as 4i, 1 µM

With `CCCCCCCCCCc1ccc(C(=O)N2CCN[C@@H](C)C2)cc1.Cl` [(S)-4i, (S)-(4-Decylphenyl)(3-methylpiperazin-1-yl)methanone Hydrochloride] the “%Inhib. (Spns2 inhibition, percent decrease in S1P secretion relative to control)” value was 68%.

same assay, conditions: HeLa, 0.3 μM inhibitor (Figure 5); HeLa cells; read-out: % Inhibition, tail homologation study

Compared with `CCCCCCCCc1ccc(NC(=O)N2CCNCC2)cc1` [20c, N-(4-Octylphenyl)piperazine-1-carboxamide Hydrogen Chloride], `CCCCCCCCCc1ccc(NC(=O)N2CCNCC2)cc1` [20d, N-(4-Nonylphenyl)piperazine-1-carboxamide Hydrogen Chloride] is higher in inhibition at 0.3 µM: 48 ± 7% for the first, 61 ± 4% for the second.

Compared with `CCCCCCCc1ccc(NC(=O)N2CCNCC2)cc1` [20b, N-(4-Heptylphenyl)piperazine-1-carboxamide Hydrogen Chloride], `CCCCCCCCCCCc1ccc(NC(=O)N2CCNCC2)cc1` [20e, N-(4-Undecylphenyl)piperazine-1-carboxamide Hydrogen Chloride] is higher in inhibition at 0.3 µM: 28 ± 5% for the first, 76 ± 5% for the second.

Compound `CCCCCCCCCCCCc1ccc(NC(=O)N2CCNCC2)cc1` [20f, N-(4-Dodecylphenyl)piperazine-1-carboxamide Hydrogen Chloride] has an inhibition at 0.3 µM of 57 ± 1%.

same assay, conditions: HeLa, 1 μM inhibitor; HeLa cells; S1P in media by LC-MS/MS; read-out: %Inhib. (Spns2 inhibition, percent decrease in S1P secretion relative to control)

Going from `CCCCCCCCCCc1ccc(NC(=O)NCCCN)cc1` [11a, 1-(3-Aminopropyl)-3-(4-decylphenyl)urea Hydrochloride] to `CCCCCCCCCCc1ccc(NC(=O)NC2CNC2)cc1` [11b, 1-(Azetidin-3-yl)-3-(4-decylphenyl)urea 2,2,2-Trifluoroacetate], the inhibition at 1 µM rises from 53% to 59 ± 1%.

Compared with `CCCCCCCCCCc1ccc(NC(=O)N2CC[N+](C)(C)CC2)cc1` [18b, 4-((4-Decylphenyl)carbamoyl)-1,1-dimethylpiperazin-1-ium Iodide], `CCCCCCCCCCc1ccc(NC(=O)N2CCN(C)CC2)cc1` [18a, N-(4-Decylphenyl)-4-methylpiperazine-1-carboxamide Hydrochloride] is higher in inhibition at 1 µM: 5 ± 3% for the first, 43 ± 4% for the second.

`CCCCCCCCCCc1ccc(NC(=O)O[C@@H]2CCCNC2)cc1` [(R)-8d, (R)-Piperidin-3-yl (4-Decylphenyl)carbamate Hydrochloride] and `CCCCCCCCCCc1ccc(NC(=O)O[C@H]2CCCNC2)cc1` [(S)-8e, (S)-Piperidin-3-yl (4-Decylphenyl)carbamate Hydrochloride] are within error of each other in inhibition at 1 µM: 45 ± 3% for the first, 48 ± 2% for the second.

`CCCCCCCCCCc1ccc(C(=O)N2CCNCC2C)cc1` (racemic) [(±)-4j, (4-Decylphenyl)(2-methylpiperazin-1-yl)methanone Hydrochloride] and `CCCCCCCCCCc1ccc(C(=O)N2CCNCC2)cc1` [4h, (4-Decylphenyl)(piperazin-1-yl)methanone Hydrochloride] are within error of each other in inhibition at 1 µM: 61 ± 2% for the first, 68 ± 5% for the second.

First: CCCCCCCCCCc1ccc(NC(=O)N2CCCNCC2)cc1 [11m, N-(4-Decylphenyl)-1,4-diazepane-1-carboxamide Hydrochloride]
Second: CCCCCCCCCCc1ccc(NC(=O)N2CCN[C@H](C)C2)cc1 [(R)-11l, (R)-N-(4-Decylphenyl)-3-methylpiperazine-1-carboxamide Hydrochloride]
The inhibition at 1 µM of the first is lower: 72 ± 1% for the first, no less than 80% for the second.

First: CCCCCCCCCCc1ccc(C(=O)N2CC3CC2CN3)cc1 (stereo not drawn) [4l, (2,5-Diazabicyclo[2.2.1]heptan-2-yl)(4-decylphenyl)methanone Hydrochloride]
Second: CCCCCCCCCCc1ccc(NC(=O)N2CC3CC2CN3)cc1 (stereo not drawn) [11j, N-(4-Decylphenyl)-2,5-diazabicyclo[2.2.1]heptane-2-carboxamide Hydrochloride]
The inhibition at 1 µM of the first is lower: 25 ± 2% for the first, 35% for the second.

Compared with `CCCCCCCCCCc1ccc(NC(=O)NC2CCNCC2)cc1` [11h, 1-(4-Decylphenyl)-3-(piperidin-4-yl)urea Hydrochloride], `CCCCCCCCCCc1ccc(NC(=O)N[C@@H]2CCNC2)cc1` [(R)-11c, (R)-1-(4-Decylphenyl)-3-(pyrrolidin-3-yl)urea Hydrochloride] is higher in inhibition at 1 µM: 34 ± 9% for the first, 49% for the second.

`CCCCCCCCCCc1ccc(N(C)C(=O)N2CCNCC2)cc1` [17a, N-(4-Decylphenyl)-N-methylpiperazine-1-carboxamide Hydrochloride] and `CCCCCCCCCCc1ccc(N(C)C(=O)N2CC3CCC(C2)N3)cc1` [17c, N-(4-Decylphenyl)-N-methyl-3,8-diazabicyclo[3.2.1]octane-3-carboxamide Hydrochloride] are within error of each other in inhibition at 1 µM: 13 ± 4% for the first, 18 ± 1% for the second.

Compared with `CCCCCCCCCCc1ccc(NC(=O)N[C@@H]2CCCNC2)cc1` [(R)-11e, (R)-1-(4-Decylphenyl)-3-(piperidin-3-yl)urea Hydrochloride], `CCCCCCCCCCc1ccc(NC(=O)N[C@H]2CCNC2)cc1` [(S)-11d, (S)-1-(4-Decylphenyl)-3-(pyrrolidin-3-yl)urea Hydrochloride] is lower in inhibition at 1 µM: 86% for the first, 44 ± 2% for the second.

First: CCCCCCCCCCc1ccc(NC(=O)N2CC3CCC(C2)N3)cc1 [11k, N-(4-Decylphenyl)-3,8-diazabicyclo[3.2.1]octane-3-carboxamide Hydrochloride]
Second: CCCCCCCCCCc1ccc(C(=O)N2CC3CCC(C2)N3)cc1 [4k, (3,8-Diazabicyclo[3.2.1]octan-3-yl)(4-decylphenyl)methanone Hydrochloride]
The inhibition at 1 µM of the first is higher: 77% for the first, 0% for the second.

Compared with `CCCCCCCCCCc1ccc(C(=S)N[C@@H]2CCNC2)cc1` [(R)-15b, (R)-4-Decyl-N-(pyrrolidin-3-yl)benzothioamide Hydrochloride], `CCCCCCCCCCc1ccc(C(=O)N[C@H]2CCNC2)cc1.Cl` [(S)-4d, (S)-4-Decyl-N-(pyrrolidin-3-yl)benzamide Hydrochloride] is higher in inhibition at 1 µM: 33 ± 3% for the first, 61 to 66% for the second.

Compared with `CCCCCCCCCCc1ccc(NC(=O)OC2CCNCC2)cc1` [8f, Piperidin-4-yl (4-Decylphenyl)carbamate Hydrochloride], `CCCCCCCCCCc1ccc(NC(=O)O[C@@H]2CCNC2)cc1` [(R)-8b, (R)-Pyrrolidin-3-yl (4-Decylphenyl)carbamate Hydrochloride] is higher in inhibition at 1 µM: 51% for the first, 68 ± 1% for the second.

Going from `CCCCCCCCCCc1ccc(C(=O)NC2CCNCC2)cc1` [4g, 4-Decyl-N-(piperidin-4-yl)benzamide Hydrochloride] to `CCCCCCCCCCc1ccc(C(=O)N[C@@H]2CCCNC2)cc1` [(R)-4e, (R)-4-Decyl-N-(piperidin-3-yl)benzamide Hydrochloride], the inhibition at 1 µM rises from 24 ± 2% to 73 ± 1%.

First: CCCCCCCCCCc1ccc(C(=O)N[C@H]2CCCNC2)cc1 [(S)-4f, (S)-4-Decyl-N-(piperidin-3-yl)benzamide Hydrochloride]
Second: CCCCCCCCCCc1ccc(C(=O)N(C)[C@@H]2CCCNC2)cc1 [(R)-13c, (R)-4-Decyl-N-Methyl-N-(piperidin-3-yl)benzamide Hydrochloride]
The inhibition at 1 µM of the first is lower: 20 ± 3% for the first, 51 ± 2% for the second.

First: CCCCCCCCCCc1ccc(NC(=O)O[C@H]2CCNC2)cc1 [(S)-8c, (S)-Pyrrolidin-3-yl (4-Decylphenyl)carbamate Hydrochloride]
Second: CCCCCCCCCCc1ccc(C(=O)N(C)[C@@H]2CCNC2)cc1 [(R)-13b, (R)-4-Decyl-N-methyl-N-(pyrrolidin-3-yl)benzamide Hydrochloride]
The inhibition at 1 µM of the first is higher: 46% for the first, 21 ± 1% for the second.

Going from `CCCCCCCCCCc1ccc(C(=O)N(C)CCCN)cc1` [13a, N-(3-Aminopropyl)-4-decyl-N-methylbenzamide Hydrochloride] to `CCCCCCCCCCc1ccc(N(C)C(=O)N2CC3CC2CN3)cc1` (stereo not drawn) [17b, N-(4-Decylphenyl)-N-methyl-2,5-diazabicyclo[2.2.1]heptane-2-carboxamide Hydrochloride], the inhibition at 1 µM falls from 39 ± 4% to 24 ± 9%.

`CCCCCCCCCCc1ccc(NC(=O)N2CCC(N)CC2)cc1` [11g, 4-Amino-N-(4-decylphenyl)piperidine-1-carboxamide Hydrochloride] showed an inhibition at 1 µM of 59 ± 2%.
